Assay results taken from paper PMC10387993, “New pyrimidine-N-β-D-glucosides: synthesis, biological evaluation, and molecular docking investigations” (Turkish Journal of Chemistry, 2023).
Values after ≈ are worked out from the molar mass of the structure shown. Like-named read-outs stand apart in the source and are kept apart here.

Assays:
Type in all cases: cell-based
Hep3B = assay: cells; conditions: Homo sapiens; for GI50 / IC50 / IC (total growth inhibition): MTT; for IC50: read-out: IC50; for IC (total growth inhibition): read-out: TGI; for LC50 (concentration causing 50% net cell loss relative to time zero): read-out: LC50
How it was run: (§1)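 Seed ~1 × 10^4 cells/well; final 200 μL. Add MTT in phenol-red-free RPMI 1640, 4 h. Solubilise formazan in DMSO + Sorenson's buffer, 30 min RT. Read 560/690 nm. ≥3 repeats.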

HT29 = assay: cells; conditions: Homo sapiens; for LC50 (concentration giving 50% net cell loss relative to time zero): HT-29, read-out: LC50; for GI50 / IC50 / IC (total growth inhibition): HT-29, HT29, MTT; for IC50: read-out: IC50; for IC (total growth inhibition): read-out: TGI
How it was run: as §1

MCF7 = assay: cells; conditions: Homo sapiens; for LC50 (concentration causing 50% net cell loss relative to time zero): MCF7, read-out: LC50; for GI50 / IC50 / IC (total growth inhibition): MCF7, MTT; for IC50: read-out: IC50; for IC (total growth inhibition): read-out: TGI
How it was run: as §1

HeLa = assay: cells; conditions: Homo sapiens; for GI50 / IC50 / IC (total growth inhibition): MTT; for IC50: read-out: IC50; for IC (total growth inhibition): read-out: TGI; for LC50 (concentration causing 50% net cell loss): read-out: LC50
How it was run: as §1

C6 (Rat brain glioma) = assay: cells; conditions: Rattus norvegicus; for LC50 (concentration giving 50% net cell loss relative to time zero): read-out: LC50; for GI50 / IC50 / IC (total growth inhibition): C6, MTT; for IC50: read-out: IC50; for IC (total growth inhibition): read-out: TGI
How it was run: as §1

A549 = assay: cells; conditions: Homo sapiens; for LC50 (concentration causing 50% net cell loss): A549, read-out: LC50; for GI50 / IC50 / IC (total growth inhibition): A549, MTT; for IC50: read-out: IC50; for IC (total growth inhibition): read-out: TGI
How it was run: as §1

E. coli ESBL ATCC 35218 = assay: Microdilution MIC assay; conditions: Escherichia coli, ATCC35218; E. coli ESBL ATCC 35218, 24 h at 35 °C
Description: (§2) MIC values of the compounds against bacterial strains were determined on the basis of a microwell dilution method. […] […]. Growth of microorganisms was determined visually after incubation for 24 h at 35 °C. The lowest concentration at which there was no visible growth (turbidity) was taken as the MIC.

E. coli ATCC 25922 = assay: Microdilution MIC assay; conditions: Escherichia coli, ATCC25922; E. coli ATCC 25922, 24 h at 35 °C
Description: as §2

S. gordonii NCTC 7870 = assay: Microdilution MIC assay; conditions: Streptococcus gordonii, NCTC7870; S. gordonii NCTC 7870, 24 h at 35 °C
Description: as §2

[1] = system: S. aureus MRSA ATCC 46300; assay: Microdilution MIC assay; conditions: Staphylococcus aureus; S. aureus MRSA ATCC 46300, 24 h at 35 °C; read-out: MIC
Description: as §2

[2] = system: A. actinomycetemcomitans ATCC 33384; assay: Microdilution MIC assay; conditions: Aggregatibacter actinomycetemcomitans, ATCC33384; A. actinomycetemcomitans ATCC 33384, 24 h at 35 °C
Description: as §2

[3] = system: E. faecalis VRE ATCC 19433; assay: Microdilution MIC assay; conditions: Enterococcus faecalis; E. faecalis VRE ATCC 19433, 24 h at 35 °C
Description: as §2

S. mutans ATCC 35668 = assay: Microdilution MIC assay; conditions: Streptococcus mutans, ATCC35668, 24 h, S. mutans ATCC 35668, 24 h at 35 °C; read-out: MIC
Description: as §2

[4] = system: S. aureus MSSA ATCC 29213; assay: Microdilution MIC assay; conditions: S. aureus MSSA ATCC 29213, 24 h at 35 °C
Description: as §2

[5] = system: P. aeruginosa AGME ATCC 27853; assay: Microdilution MIC assay; conditions: Pseudomonas aeruginosa, ATCC27853; P. aeruginosa AGME ATCC 27853, 24 h at 35 °C
Description: as §2

E. faecalis ATCC 29212 = assay: Microdilution MIC assay; conditions: Enterococcus faecalis, ATCC29212, 24 h, E. faecalis ATCC 29212, 24 h at 35 °C; read-out: MIC
Description: as §2

normal FL cells = assay: cells; conditions: FL normal cells, MTT; for IC50: read-out: IC50; for IC (total growth inhibition): read-out: TGI
How it was run: as §1

[6] = Staphylococcus aureus, 24 h, read-out: MIC

Compound | GI50 (Hep3B) [µg/mL] | IC50 (Hep3B) [µg/mL] | IC (total growth inhibition) (Hep3B) [µg/mL] | LC50 (concentration causing 50% net cell loss relative to time zero) (Hep3B) [µg/mL] | LC50 (concentration giving 50% net cell loss relative to time zero) (HT29) [µg/mL] | GI50 (HT29) [µg/mL] | IC50 (HT29) [µg/mL] | IC (total growth inhibition) (HT29) [µg/mL] | LC50 (concentration causing 50% net cell loss relative to time zero) (MCF7) [µg/mL] | GI50 (MCF7) [µg/mL] | IC50 (MCF7) [µg/mL] | IC (total growth inhibition) (MCF7) [µg/mL] | GI50 (HeLa) [µg/mL] | IC50 (HeLa) [µg/mL] | IC (total growth inhibition) (HeLa) [µg/mL] | LC50 (concentration causing 50% net cell loss) (HeLa) [µg/mL] | LC50 (concentration giving 50% net cell loss relative to time zero) (C6 (Rat brain glioma)) [µg/mL] | GI50 (C6 (Rat brain glioma)) [µg/mL] | IC50 (C6 (Rat brain glioma)) [µg/mL] | IC (total growth inhibition) (C6 (Rat brain glioma)) [µg/mL] | also measured
Cc1ccccc1-c1cc(-c2cccnc2)nc(N[C@@H]2O[C@H](CO)[C@@H](O)[C@H](O)[C@H]2O)n1 [Compound 2, N-[4-(2-methylphenyl)-6-pyridin-3-ylpyrimidin-2-yl]-β-D-glucopyranosylamine] | 3.85 (≈ 9.07 µM) | > 500 | > 500 | > 500 | > 500 | 2.46 (≈ 5.8 µM) | 453 (≈ 1070 µM) | > 500 | > 500 | 1.69 (≈ 3.98 µM) | > 500 | > 500 | > 500 | > 500 | > 500 | > 500 | 217 (≈ 510 µM) | 9.17 (≈ 21.6 µM) | 49.7 (≈ 117 µM) | 31.6 | LC50 (concentration causing 50% net cell loss) (A549): > 500 µg/mL; GI50 (A549): 11.6 µg/mL (≈ 27.3 µM); IC50 (A549): > 500 µg/mL; IC (total growth inhibition) (A549): > 500 µg/mL; MIC (E. coli ESBL ATCC 35218): > 1000 µg/mL; MIC (E. coli ATCC 25922): > 1000 µg/mL; MIC (S. gordonii NCTC 7870): 500 µg/mL (≈ 1180 µM); MIC [1]: 125 µg/mL (≈ 294 µM); MIC [2]: 250 µg/mL (≈ 589 µM); MIC [3]: > 1000 µg/mL; MIC (S. mutans ATCC 35668): 1000 µg/mL (≈ 2360 µM); MIC [4]: 125 µg/mL (≈ 294 µM); MIC [4, 6]: 62.5 to 125 µg/mL (≈ 147 to 294 µM); MIC [5]: > 1000 µg/mL; MIC (E. faecalis ATCC 29212): > 1000 µg/mL; GI50 (normal FL cells): 3.68 µg/mL (≈ 8.67 µM); IC50 (normal FL cells): 457 µg/mL (≈ 1080 µM); IC (total growth inhibition) (normal FL cells): > 500 µg/mL
Cc1cccc(-c2cc(-c3cccnc3)nc(N[C@@H]3O[C@H](CO)[C@@H](O)[C@H](O)[C@H]3O)n2)c1 [Compound 5, N-[4-(3-methylphenyl)-6-pyridin-3-ylpyrimidin-2-yl]-β-D-glucopyranosylamine] | 3.61 (≈ 8.5 µM) | 20.1 (≈ 47.4 µM) | 20.5 | > 500 | > 500 | 4.12 (≈ 9.71 µM) | 72.6 (≈ 171 µM) | 126 | > 500 | 2.53 (≈ 5.96 µM) | 66.8 (≈ 157 µM) | 75.7 | > 500 | > 500 | > 500 | > 500 | 249 (≈ 587 µM) | 4.56 (≈ 10.7 µM) | 33.5 (≈ 78.9 µM) | 18.1 | LC50 (concentration causing 50% net cell loss) (A549): > 500 µg/mL; GI50 (A549): 23.7 µg/mL (≈ 55.8 µM); IC50 (A549): > 500 µg/mL; IC (total growth inhibition) (A549): > 500 µg/mL; MIC (E. coli ESBL ATCC 35218): > 1000 µg/mL; MIC (E. coli ATCC 25922): > 1000 µg/mL; MIC (S. gordonii NCTC 7870): 125 µg/mL (≈ 294 µM); MIC [1]: 250 µg/mL (≈ 589 µM); MIC [2]: 250 µg/mL (≈ 589 µM); MIC [3]: > 1000 µg/mL; MIC (S. mutans ATCC 35668): 500 µg/mL (≈ 1180 µM); MIC [4]: 125 µg/mL (≈ 294 µM); MIC [4, 6]: 62.5 to 125 µg/mL (≈ 147 to 294 µM); MIC [5]: > 1000 µg/mL; MIC (E. faecalis ATCC 29212): > 1000 µg/mL; GI50 (normal FL cells): 4.16 µg/mL (≈ 9.8 µM); IC50 (normal FL cells): 25.3 µg/mL (≈ 59.7 µM); IC (total growth inhibition) (normal FL cells): 25.8 µg/mL
